#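 A five-concentration, 48-hour dose response in 96-well plates underlies each endpoint, interpolated linearly between surrounding concentrations. The concentration for 50% growth inhibition is given as GI50.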 Activity calls are given as the source filed them. Rule as the data show it: active = GI50 up to about 1.1 µM and inactive = higher.
# Columns and labels:
# Assay in all cases: NCI tumour cell line growth inhibition, 48 h
# [1] = system: NCI-H23
# [2] = system: CAKI-1
# [3] = system: A549
# [4] = system: RPMI-8226
# [5] = system: HOP-92
# [6] = system: IGROV-1
# [7] = system: NCI-H460
# [8] = system: MOLT-4
# [9] = system: UACC-62
# [10] = system: U-251
# [11] = system: HCC 2998
# [12] = system: COLO 205
# [13] = system: LOX IMVI
# [14] = system: OVCAR-8
# [15] = system: SF-268
# [16] = system: NCI-H522
# [17] = system: BT-549
# [18] = system: MDA-MB-435
# [19] = system: DU-145
# [20] = system: Hs-578T
Compound,GI50 [1],GI50 [2],GI50 [3],GI50 [4],GI50 [5],GI50 [6],GI50 [7],GI50 [8],GI50 [9],GI50 [10],GI50 [11],GI50 [12],GI50 [13],GI50 [14],GI50 [15],GI50 [16],GI50 [17],GI50 [18],GI50 [19],GI50 [20]
Cc1cccc2c1c1ccc3c(c1n2C)C(=O)C=CC3=O,13.5 µM (inactive),3.2 µM (inactive),18.9 µM (inactive),2.04 µM (inactive),2.08 µM (inactive),18.3 µM (inactive),17.3 µM (inactive),0.536 µM (active),13.2 µM (inactive),10.3 µM (inactive),18.2 µM (inactive),2.39 µM (inactive),4.94 µM (inactive),5.37 µM (inactive),14 µM (inactive),1.51 µM (inactive),–,–,–,–
NNC(=O)Cn1c2ccc(Br)cc2c2nc3ccccc3nc21,20.4 µM (inactive),> 100 µM (inactive),94.8 µM (inactive),> 100 µM (inactive),–,31 µM (inactive),–,11.7 µM (inactive),56.5 µM (inactive),43.7 µM (inactive),–,> 100 µM (inactive),–,54.3 µM (inactive),> 100 µM (inactive),–,> 100 µM (inactive),> 100 µM (inactive),> 100 µM (inactive),–
NCCC(=O)N[C@H](Cc1cc(O)c(O)c(SCC(NC(=O)CC[C@H](N)C(=O)O)C(=O)NCC(=O)O)c1)C(=O)O (stereo partly drawn),> 50 µM (inactive),> 50 µM (inactive),> 50 µM (inactive),> 50 µM (inactive),> 50 µM (inactive),> 50 µM (inactive),> 50 µM (inactive),–,> 50 µM (inactive),> 50 µM (inactive),> 50 µM (inactive),> 50 µM (inactive),–,–,> 50 µM (inactive),> 50 µM (inactive),> 50 µM (inactive),> 50 µM (inactive),> 50 µM (inactive),–
O=C1NC(=N/c2ccccc2)/C(=N\c2ccccc2)N1c1ccccc1,16.7 µM (inactive),16.3 µM (inactive),15.9 µM (inactive),27 µM (inactive),16.3 µM (inactive),16.6 µM (inactive),16.5 µM (inactive),25.9 µM (inactive),12.7 µM (inactive),15.6 µM (inactive),16.9 µM (inactive),14.8 µM (inactive),16.3 µM (inactive),15.8 µM (inactive),17.9 µM (inactive),1.7 µM (inactive),–,14.2 µM (inactive),12.4 µM (inactive),16.6 µM (inactive)
CCCCC(=O)Nc1ccc2cc(C(=O)OC)c(ON3C(=O)c4ccccc4C3=O)nc2n1,44.1 µM (inactive),22.2 µM (inactive),27.2 µM (inactive),89.9 µM (inactive),26.4 µM (inactive),16.3 µM (inactive),15.3 µM (inactive),28.9 µM (inactive),–,26.5 µM (inactive),22.6 µM (inactive),64.4 µM (inactive),31 µM (inactive),25 µM (inactive),29.1 µM (inactive),23.3 µM (inactive),38.3 µM (inactive),37.6 µM (inactive),–,–
COc1ccccc1Cn1c2c(c3cc(O)ccc31)C(=O)c1ccccc1C2=O,20 µM (inactive),16.7 µM (inactive),19.5 µM (inactive),15.3 µM (inactive),–,16.6 µM (inactive),26.2 µM (inactive),> 100 µM (inactive),17 µM (inactive),16 µM (inactive),–,61.9 µM (inactive),12.4 µM (inactive),11.7 µM (inactive),19.7 µM (inactive),–,> 100 µM (inactive),84.3 µM (inactive),39.4 µM (inactive),36.6 µM (inactive)
C=C(c1ccccc1)[C@@]1(O)CCCC[C@H]1NC(c1ccccc1)c1ccccc1,8.3 µM (inactive),7.67 µM (inactive),11.8 µM (inactive),3.94 µM (inactive),12.6 µM (inactive),16.2 µM (inactive),13 µM (inactive),2.73 µM (inactive),13.1 µM (inactive),10.7 µM (inactive),12.6 µM (inactive),14.2 µM (inactive),9.84 µM (inactive),13.8 µM (inactive),13.6 µM (inactive),8.85 µM (inactive),–,–,–,–
O=C1NC(N2CCOCC2)=N/C1=C\c1ccccc1O,> 100 µM (inactive),> 100 µM (inactive),> 100 µM (inactive),> 100 µM (inactive),> 100 µM (inactive),> 100 µM (inactive),–,> 100 µM (inactive),–,> 100 µM (inactive),–,> 100 µM (inactive),> 100 µM (inactive),> 100 µM (inactive),> 100 µM (inactive),> 100 µM (inactive),–,> 100 µM (inactive),> 100 µM (inactive),> 100 µM (inactive)
CC(=O)c1cccc(NC(=O)/C(=N\NC(=S)NN)C2C(=O)Nc3ccccc3[S+]2[O-])c1 (stereo not drawn),> 100 µM (inactive),> 100 µM (inactive),> 100 µM (inactive),> 100 µM (inactive),83.8 µM (inactive),> 100 µM (inactive),–,> 100 µM (inactive),> 100 µM (inactive),> 100 µM (inactive),–,–,> 100 µM (inactive),> 100 µM (inactive),> 100 µM (inactive),> 100 µM (inactive),> 100 µM (inactive),> 100 µM (inactive),–,> 100 µM (inactive)
COc1cc(/C=C2\CCC(C)C3=C2NC(=S)NC3c2cc(OC)c(OC)c(OC)c2)cc(OC)c1OC (stereo not drawn),–,81.5 µM (inactive),36.4 µM (inactive),18.5 µM (inactive),> 100 µM (inactive),40.3 µM (inactive),–,24 µM (inactive),40 µM (inactive),46.8 µM (inactive),–,–,53.2 µM (inactive),54 µM (inactive),73.6 µM (inactive),–,–,38.2 µM (inactive),56.8 µM (inactive),37 µM (inactive)
Cc1ccc(S(=O)OC23CC4CC(CC(C4)C2)C3)cc1 (stereo not drawn),> 100 µM (inactive),> 100 µM (inactive),> 100 µM (inactive),41.4 µM (inactive),> 100 µM (inactive),29.4 µM (inactive),> 100 µM (inactive),29.9 µM (inactive),> 100 µM (inactive),36.8 µM (inactive),> 100 µM (inactive),> 100 µM (inactive),39.2 µM (inactive),> 100 µM (inactive),86.1 µM (inactive),30.5 µM (inactive),–,–,–,–
COC(=O)/C(C#N)=C1\NC(=O)CC(c2ccccc2)C1C#N (stereo not drawn),–,> 100 µM (inactive),> 100 µM (inactive),> 100 µM (inactive),63.5 µM (inactive),> 100 µM (inactive),> 100 µM (inactive),> 100 µM (inactive),> 100 µM (inactive),–,> 100 µM (inactive),> 100 µM (inactive),> 100 µM (inactive),> 100 µM (inactive),> 100 µM (inactive),> 100 µM (inactive),> 100 µM (inactive),–,> 100 µM (inactive),> 100 µM (inactive)
N#Cc1c(-c2ccccc2)cc(Nc2cccc(C(F)(F)F)c2)n2c1nc1ccccc12,0.336 µM (active),1.91 µM (inactive),–,0.237 µM (active),0.206 µM (active),–,0.766 µM (active),0.76 µM (active),–,0.611 µM (active),–,1.04 µM (active),1.2 µM (inactive),1.01 µM (active),1.29 µM (inactive),0.245 µM (active),3.82 µM (inactive),2.01 µM (inactive),4.04 µM (inactive),–
NC(Cc1ccc(B(O)O)cc1)C(=O)NC(CO)CO (stereo not drawn),> 100 µM (inactive),> 100 µM (inactive),> 100 µM (inactive),> 100 µM (inactive),–,> 100 µM (inactive),> 100 µM (inactive),> 100 µM (inactive),> 100 µM (inactive),> 100 µM (inactive),> 100 µM (inactive),> 100 µM (inactive),> 100 µM (inactive),> 100 µM (inactive),> 100 µM (inactive),> 100 µM (inactive),> 100 µM (inactive),> 100 µM (inactive),–,> 100 µM (inactive)
COc1cccc2c1NC(=O)Cc1c-2[nH]c2ccccc12,81.5 µM (inactive),> 100 µM (inactive),> 100 µM (inactive),31.2 µM (inactive),> 100 µM (inactive),> 100 µM (inactive),35.1 µM (inactive),13.6 µM (inactive),> 100 µM (inactive),> 100 µM (inactive),> 100 µM (inactive),> 100 µM (inactive),> 100 µM (inactive),–,> 100 µM (inactive),49.9 µM (inactive),–,29.1 µM (inactive),> 100 µM (inactive),87.7 µM (inactive)
C=C1C[C@H]2C=Nc3cc(OCCCOc4cc5c(cc4OC)C(=O)N4CC(=C)C[C@H]4C=N5)c(OC)cc3C(=O)N2C1 [SJG-136],0.00166 µM (active),< 0.01 µM (active),0.0157 µM (active),0.0121 µM (active),0.00682 µM (active),< 0.01 µM (active),< 0.01 µM (active),0.000136 µM (active),< 0.01 µM (active),< 0.01 µM (active),0.0126 µM (active),< 0.01 µM (active),< 0.01 µM (active),0.0119 µM (active),0.000832 µM (active),0.0014 µM (active),0.0111 µM (active),–,–,0.0426 µM (active)

# From ChEMBL document CHEMBL1201862, “PubChem BioAssay data set” (2004)
